Measured values: ChEMBL document CHEMBL5247651, “Oxadiazolopyridine Derivatives as Efficacious Mitochondrial Uncouplers in the Prevention of Diet-Induced Obesity” (J Med Chem, 2023)
Active and inactive are the calls of the source. The calls are words filed in the database; no cut-off is given here.

What was measured:
Mus musculus [1] = assay: Anti-obesity activity in high-sugar western diet induced obesity C57BL/6j mouse model assessed as decrease in muscle weight at 130 mg/kg per day, po administered via gavage daily measured after 3 weeks; format: functional, organism-based
Mus musculus [2] = assay: Anti-obesity activity in high-sugar western diet induced obesity C57BL/6j mouse model assessed as decrease in glucose level AUC at 130 mg/kg per day, po administered measured after 10 days in presence of glucose by glucose tolerance test; format: functional, organism-based; details: time 10.0 day
[3] = Induction of mitochondrial respiration in rat L6 cells assessed as fold increase in basal respiration upto 200 uM; format: functional
Mus musculus [4] = assay: Anti-obesity activity in high-sugar western diet induced obesity C57BL/6j mouse model assessed as decrease in serum glucose level at 130 mg/kg per day, po administered measured after 2 weeks; format: functional, organism-based
[5] = Apparent permeability across apical to basolateral side in human Caco-2 cells; format: ADME, cell-based
L6 [6] = assay: Induction of mitochondrial respiration in rat L6 cells assessed as fold increase in basal respiration at 25 uM in presence of antimycin and rotenone; format: functional, cell-based
[7] = Induction of mitochondrial uncoupling activity in rat L6 cells assessed as increase in oxygen consumption rate measured after 90 mins by agilent Seahorse XF analyzer; format: functional, cell-based
[8] = Half life in C57BL/6 mouse at 1 mg/kg, iv measured upto 24 hrs by LC/MS-MS analysis; format: ADME, organism-based; details: in vivo
Mus musculus [9] = assay: Anti-obesity activity in high-sugar western diet induced obesity C57BL/6j mouse model assessed as decrease in fat-free lean mass at 130 mg/kg per day, po administered measured after 2 weeks by EchoMRI analysis; format: functional; design: scale not given: the % may be the effect or the level left
[10] = Observed apparent volume of distribution in C57BL/6 mouse at 1 mg/kg, iv measured upto 24 hrs by LC/MS-MS analysis; format: ADME, organism-based; details: in vivo, read-out: Vz
Mus musculus [11] = assay: Anti-obesity activity in high-sugar western diet induced obesity C57BL/6j mouse model assessed as decrease in subcutaneous fat pad weight at 130 mg/kg per day, po administered via gavage daily measured after 3 weeks; format: functional, organism-based
[12] = Induction of mitochondrial uncoupling activity in rat L6 cells assessed as increase in oxygen consumption rate at 0.37 to 200 uM measured after 90 mins by agilent Seahorse XF analyzer relative to BAM15; format: functional; details: dose 0.37-200 µM, 1.5 h
[13] = Cmax in C57BL/6 mouse at 1 mg/kg, iv measured upto 24 hrs by LC/MS-MS analysis; format: ADME, organism-based; design: time < 24 hrs, dose 1 mg/kg, route iv; details: in vivo
[14] = Drug distribution in fasted C57BL/6j mouse liver at 130 mg/kg, po by LC-MS/MS analysis; format: ADME, organism-based; details: in vivo
Mus musculus [15] = assay: Anti-obesity activity in high-sugar western diet induced obesity C57BL/6j mouse model assessed as decrease in gonadal white adipose tissue weight at 130 mg/kg per day, po administered via gavage daily measured after 3 weeks; format: functional, organism-based
Mus musculus [16] = assay: Anti-obesity activity in high-fat diet induced obesity C57BL/6 mouse model assessed as increase in oxygen consumption at 130 mg/kg, po measured upto 4 hrs by indirect calorimetric analysis; format: functional, organism-based
Mus musculus [17] = assay: Anti-obesity activity in high-fat diet induced obesity C57BL/6 mouse model assessed as increase in carbon dioxide production at 130 mg/kg, po measured upto 4 hrs by indirect calorimetric analysis; format: functional, organism-based
L6 [18] = assay: Induction of mitochondrial respiration in rat L6 cells assessed as fold increase in basal respiration at 25 uM in presence of oligomycin; format: functional, cell-based
Mus musculus [19] = assay: Anti-obesity activity in high-sugar western diet induced obesity C57BL/6j mouse model assessed as reversal of fat mass gain at 130 mg/kg per day, po administered via gavage daily measured after 3 weeks; format: functional, organism-based
Mus musculus [20] = assay: Anti-obesity activity in high-fat diet induced obesity C57BL/6 mouse model assessed as increase in locomotory activity at 130 mg/kg, po measured upto 4 hrs by indirect calorimetric analysis; format: functional, organism-based
[21] = Drug distribution in fasted C57BL/6j mouse white adipose tissue at 10 mg/kg, po measured after 2 hrs by LC-MS/MS analysis; format: ADME, organism-based; details: in vivo
[22] = Cmax in C57BL/6 mouse at 10 mg/kg, po administered via gavage measured upto 24 hrs by LC/MS-MS analysis; format: ADME, organism-based; design: dose 10 mg/kg, time < 24 hrs, route po; details: in vivo
Mus musculus [23] = assay: Anti-obesity activity in fasted C57BL/6j mouse assessed as decrease in serum glucose level at 130 mg/kg per day, po administered measured after 2 weeks; format: functional, organism-based
[24] = Half life in C57BL/6 mouse at 10 mg/kg, po administered via gavage measured upto 24 hrs by LC/MS-MS analysis; format: ADME, organism-based; details: in vivo
[25] = Drug distribution in fasted C57BL/6j mouse brown adipose tissue at 10 mg/kg, po measured after 2 hrs by LC-MS/MS analysis; format: ADME, organism-based; details: in vivo
[26] = mouse, in vivo, po, 10 mg/kg, 24 h
Mus musculus [27] = assay: Anti-obesity activity in high-sugar western diet induced obesity C57BL/6j mouse model assessed as effect on free fatty acid level at 130 mg/kg per day, po administered via gavage daily measured after 3 weeks by fluorometric analysis; format: functional, organism-based
Mus musculus [28] = assay: Anti-obesity activity in high-sugar western diet induced obesity C57BL/6j mouse model assessed as decrease in retroperitoneal fat pad weight at 130 mg/kg per day, po administered via gavage daily measured after 3 weeks; format: functional, organism-based
Mus musculus [29] = assay: Anti-obesity activity in C57BL/6j mouse assessed as decrease in serum insulin level at 130 mg/kg per day, po administered via gavage daily measured after 3 weeks by ELISA assay; format: functional, organism-based
Mus musculus [30] = assay: Anti-obesity activity in high-sugar western diet induced obesity C57BL/6j mouse model assessed as effect on fecal triglyceride level at 130 mg/kg per day, po administered via gavage daily measured after 3 weeks by colorimetric analysis; format: functional, organism-based
Mus musculus [31] = assay: Anti-obesity activity in high-sugar western diet induced obesity C57BL/6j mouse model assessed as decrease in fat-free mass body composition at 130 mg/kg per day, po administered measured after 2 weeks by EchoMRI analysis (reference value: 77%); format: functional; design: scale not given: the % may be the effect or the level left
Mus musculus [32] = assay: Anti-obesity activity in C57BL/6j mouse assessed as increase in glucose level at 130 mg/kg per day, po administered via gavage daily measured after 3 weeks by glucose tolerance test; format: functional, organism-based
Mus musculus [33] = assay: Anti-obesity activity in high-fat diet induced obesity C57BL/6 mouse model assessed as increase in carbohydrate oxidation at 130 mg/kg, po measured upto 4 hrs by indirect calorimetric analysis; format: functional, organism-based
Mus musculus [34] = assay: Anti-obesity activity in high-sugar western diet induced obesity C57BL/6j mouse model assessed as reversal of body weight at 130 mg/kg per day, po administered via gavage daily measured after 3 weeks; format: functional, organism-based
[35] = Observed apparent volume of distribution in C57BL/6 mouse at 10 mg/kg, po measured upto 24 hrs by LC/MS-MS analysis; format: ADME, organism-based; details: in vivo
[36] = Cmax in Swiss albino mouse at 10 mg/kg, po administered via gavage measured upto 24 hrs by LC/MS-MS analysis; format: ADME, organism-based; design: time < 24 hrs, dose 10 mg/kg, route po; details: in vivo
Mus musculus [37] = assay: Anti-obesity activity in high-sugar western diet induced obesity C57BL/6j mouse model assessed as decrease in body weight at 130 mg/kg per day, po administered for 14 days; format: functional, organism-based; details: time 14.0 day
[38] = Apparent permeability across basolateral to apical side in human Caco-2 cells; format: ADME, cell-based

Papp A→B [5]: 12.4 ×10⁻⁶ cm/s
EC50 [7]: 17.1 µM
pEC50 [7]: 4.8
half-life [8]: 1.15 h
Vd [10]: 0.07 L/kg
Cmax [13]: 16 µM
Drug uptake [14]: Active
Drug uptake [21]: Active
Cmax [22]: 87 µM
t1/2 [24]: 1.2 h
Drug uptake [25]: Active
F [26]: 75%
Vz [35]: 0.74 L/kg
Cmax [36]: 57 µM
Papp B→A [38]: 1.6 ×10⁻⁶ cm/s
SMILES: Oc1nc2nonc2cc1Nc1c(F)c(F)c(F)c(F)c1F
Activity (Mus musculus [1]): inactive
Activity (Mus musculus [2]): Active
fold change (FC) [3]: 2
Activity (Mus musculus [4]): Active
Activity (L6 [6]): inactive
Activity (Mus musculus [9]): 4%
Activity (Mus musculus [11]): inactive
Activity [12]: 48%
Activity (Mus musculus [15]): Active
Activity (Mus musculus [16]): Active
Activity (Mus musculus [17]): Active
Activity (L6 [18]): Active
Activity (Mus musculus [19]): Active
Activity (Mus musculus [20]): inactive
Activity (Mus musculus [23]): Active
Activity (Mus musculus [27]): inactive
Activity (Mus musculus [28]): inactive
Activity (Mus musculus [29]): Active
Activity (Mus musculus [30]): inactive
Activity (Mus musculus [31]): 84%
Activity (Mus musculus [32]): inactive
Activity (Mus musculus [33]): Active
Activity (Mus musculus [34]): Active
Activity (Mus musculus [37]): Active
